How the values were obtained:
Gamma-secretase [1] = test: Inhibition of gamma secretase in human SHSY5Y cells expressing wild-type APP assessed as inhibition of intracellular amyloid beta-40 by electrochemiluminescent assay; assay type: cell-based; details: sh-sy5y
Gamma-secretase [2] = test: Inhibition of gamma secretase in human SHSY5Y cells expressing wild-type APP assessed as inhibition of intracellular amyloid beta-42 by electrochemiluminescent assay; assay type: cell-based; details: sh-sy5y
Rattus norvegicus [3] = organism: Rattus norvegicus; test: Reduction in amyloid beta 42 level in rat after 7 hrs; assay type: functional, organism-based
Rattus norvegicus [4] = test: Toxicity in rat assessed as notch -related activity at 250 mg/kg, after 7 days; assay type: organism-based; set-up: dose 250 mg/kg; details: in vivo, 168 h
Brain [5] = test: Reduction in amyloid beta 42 level in rat brain after 7 hrs; assay type: functional, tissue-based
[6] = (§1) Plasma concentration in APP-YAC transgenic mouse at 10 mg/kg, po after 7 hrs; assay type: ADME, organism-based; set-up: dose 10 mg/kg, route oral; details: APP-YAC transgenic, plasma
Plasma = test: Reduction in amyloid beta 42 level in rat plasma after 7 hrs; assay type: functional, cell-free
[7] = Half life in rat at 1 mg/kg, iv and 2 mg/kg, po; assay type: ADME, organism-based; details: in vivo
[8] = (§2) Drug level in APP-YAC transgenic mouse brain at 10 mg/kg, po after 7 hrs; assay type: ADME, organism-based; set-up: dose 10 mg/kg, route oral; details: APP-YAC transgenic, brain, read-out: Drug uptake
Rattus norvegicus [9] = test: (§3) Oral bioavailability in rat at 2 mg/kg; assay type: ADME, organism-based; details: in vivo
[10] = Plasma clearance in rat at 1 mg/kg, iv and 2 mg/kg, po; assay type: ADME, organism-based
[11] = AUC (0 to 24 hrs) in rat at 250 mg/kg, po after 7 days; assay type: ADME, organism-based; set-up: time < 24 hr, dose 250 mg/kg, route oral; details: plasma
Brain [12] = test: Reduction in amyloid beta 42 level in APP-YAC transgenic mouse brain at 20 mg/kg, po after 7 hrs; assay type: functional; set-up: scale not given: the % may be the effect or the level left
[13] = Volume of distribution at steady state in rat at 1 mg/kg, iv and 2 mg/kg, po; assay type: ADME, organism-based; details: in vivo, read-out: Vdss
Mus musculus [14] = test: as §1; assay type: ADME, organism-based; set-up: dose 10 mg/kg, route oral; details: in vivo, 7 h
Mus musculus [15] = test: as §2; assay type: ADME, organism-based; set-up: dose 10 mg/kg, route oral; details: in vivo, 7 h
[16] = as §3; assay type: ADME, organism-based; details: in vivo

| SMILES | IC50 (Gamma-secretase [1]) [nM] | IC50 (Gamma-secretase [2]) [nM] | also measured |
| --- | --- | --- | --- |
| CC(C)CCC(CCC(C)C)N1CCC(F)(F)[C@H](CC(=O)O)[C@H]1c1ccc(C(F)(F)F)cc1 | > 10000 | 880 | – |
| CC(C)(C)CCC(CCC(F)(F)F)N1CCC(F)(F)[C@H](CC(=O)O)[C@H]1c1ccc(C(F)(F)F)cc1 (single isomer, unassigned; enantiomer 1) | > 10000 | 1400 | – |
| CC(C)(C)CCC(CCC(F)(F)F)N1CCC(F)(F)[C@H](CC(=O)O)[C@H]1c1ccc(C(F)(F)F)cc1 (some centres not stated) | > 10000 | 600 | IC50 (Rattus norvegicus [3]): Dose-dependent effect; ED50 (Rattus norvegicus [3]; Rattus norvegicus, 7 h): 5 mg/kg; Activity (Rattus norvegicus [4]): Non-toxic; EC50 (Brain [5]): 1000 nM; concentration at 7 h [6]: 1100 nM; EC50 (Plasma): 3700 nM; half-life [7]: 5.1 h; concentration at 7 h [8]: 580 nM; F (Rattus norvegicus [9]): 160%; clearance [10]: 3.8 mL/min/kg; AUC at 24 h [11]: 2100 µM·h; Activity (Brain [12]): -84%; Vd [13]: 1.9 L/kg |
| C[Si](C)(C)CC[C@H](CCC(F)(F)F)N1CC[C@@H](CC(=O)O)C(F)(F)[C@H]1c1ccc(C(F)(F)F)cc1 | > 10000 | 230 | Cp (Mus musculus [14]): Not Active; half-life [7]: 6.4 h; Drug uptake (Mus musculus [15]): Not Active; bioavailability [16]: 20%; clearance [10]: 9.1 mL/min/kg; Activity (Brain [12]): -64%; Vd [13]: 5.1 L/kg |
| CN1CCC(F)(F)[C@H](CC(=O)O)[C@H]1c1ccc(C(F)(F)F)cc1 | > 10000 | > 10000 | – |
| CC(C)(C)C#CC(CCC(F)(F)F)N1CCC(F)(F)[C@H](CC(=O)O)[C@H]1c1ccc(C(F)(F)F)cc1 (some centres not stated) | > 10000 | 1500 | – |
| CC(C)CC[C@H](c1ccc(C(F)(F)F)cc1)N1CC[C@@H](CC(=O)O)C(F)(F)[C@H]1c1ccc(C(F)(F)F)cc1 | > 10000 | 710 | – |
| C[Si](C)(C)CCC(CCC(F)(F)F)N1CCC(F)(F)[C@H](CC(=O)O)[C@H]1c1ccc(C(F)(F)F)cc1 (single isomer, unassigned; enantiomer 2) | > 10000 | 640 | – |
| CC(C)(C)C#CC(CCC(F)(F)F)N1CCC(F)(F)[C@H](CC(=O)O)[C@H]1c1ccc(C(F)(F)F)cc1 (mixture of isomers) | > 10000 | 800 | – |
| CC(C)(C)C#CC(CCC(F)(F)F)N1CCC(F)(F)[C@H](CC(=O)O)[C@H]1c1ccc(C(F)(F)F)cc1 (single isomer, unassigned; enantiomer 2) | > 10000 | 390 | – |
| CC(C)(C)CC[C@H](CCC(F)(F)F)N1CC[C@@H](CC(=O)O)C(F)(F)[C@H]1c1ccc(C(F)(F)F)cc1 | > 10000 | 490 | – |

From ChEMBL document CHEMBL1153224, “Fluorinated piperidine acetic acids as gamma-secretase modulators” (Bioorg Med Chem Lett, 2010)
